# ± gives the expanded uncertainty stated by the source.
# Conditions: Liquid, Vibrating tube method
compound,measurement,setting,value
CCO [ethanol],mass density,"283.15 K, 100 kPa",798 ± 0.2 kg/m3
same,mass density,"283.15 K, 5000 kPa",802 ± 0.2 kg/m3
same,mass density,"283.15 K, 10000 kPa",805.9 ± 0.2 kg/m3
same,mass density,"283.15 K, 15000 kPa",809.5 ± 0.3 kg/m3
same,mass density,"283.15 K, 20000 kPa",813 ± 0.3 kg/m3
same,mass density,"283.15 K, 25000 kPa",816.4 ± 0.4 kg/m3
same,mass density,"283.15 K, 30000 kPa",819.7 ± 0.4 kg/m3
same,mass density,"283.15 K, 35000 kPa",822.8 ± 0.4 kg/m3
same,mass density,"283.15 K, 40000 kPa",825.9 ± 0.5 kg/m3
same,mass density,"283.15 K, 45000 kPa",828.8 ± 0.5 kg/m3
same,mass density,"293.15 K, 100 kPa",789.5 ± 0.2 kg/m3
same,mass density,"293.15 K, 5000 kPa",793.7 ± 0.2 kg/m3
same,mass density,"293.15 K, 10000 kPa",797.8 ± 0.3 kg/m3
same,mass density,"293.15 K, 15000 kPa",801.6 ± 0.3 kg/m3
same,mass density,"293.15 K, 20000 kPa",805.3 ± 0.3 kg/m3
same,mass density,"293.15 K, 25000 kPa",808.9 ± 0.4 kg/m3
same,mass density,"293.15 K, 30000 kPa",812.3 ± 0.4 kg/m3
same,mass density,"293.15 K, 35000 kPa",815.6 ± 0.5 kg/m3
same,mass density,"293.15 K, 40000 kPa",818.7 ± 0.5 kg/m3
same,mass density,"293.15 K, 45000 kPa",821.8 ± 0.5 kg/m3
same,mass density,"303.15 K, 100 kPa",780.9 ± 0.2 kg/m3
same,mass density,"303.15 K, 5000 kPa",785.3 ± 0.2 kg/m3
same,mass density,"303.15 K, 10000 kPa",789.6 ± 0.3 kg/m3
same,mass density,"303.15 K, 15000 kPa",793.7 ± 0.3 kg/m3
same,mass density,"303.15 K, 20000 kPa",797.5 ± 0.4 kg/m3
same,mass density,"303.15 K, 25000 kPa",801.3 ± 0.4 kg/m3
same,mass density,"303.15 K, 30000 kPa",804.8 ± 0.4 kg/m3
same,mass density,"303.15 K, 35000 kPa",808.2 ± 0.5 kg/m3
same,mass density,"303.15 K, 40000 kPa",811.5 ± 0.5 kg/m3
same,mass density,"303.15 K, 45000 kPa",814.7 ± 0.6 kg/m3
same,mass density,"313.15 K, 100 kPa",772.1 ± 0.2 kg/m3
same,mass density,"313.15 K, 5000 kPa",776.8 ± 0.2 kg/m3
same,mass density,"313.15 K, 10000 kPa",781.3 ± 0.3 kg/m3
same,mass density,"313.15 K, 15000 kPa",785.6 ± 0.3 kg/m3
same,mass density,"313.15 K, 20000 kPa",789.6 ± 0.4 kg/m3
same,mass density,"313.15 K, 25000 kPa",793.5 ± 0.4 kg/m3
same,mass density,"313.15 K, 30000 kPa",797.2 ± 0.5 kg/m3
same,mass density,"313.15 K, 35000 kPa",800.8 ± 0.5 kg/m3
same,mass density,"313.15 K, 40000 kPa",804.2 ± 0.5 kg/m3
same,mass density,"313.15 K, 45000 kPa",807.6 ± 0.6 kg/m3
same,mass density,"323.15 K, 100 kPa",763.3 ± 0.2 kg/m3
same,mass density,"323.15 K, 5000 kPa",768.3 ± 0.2 kg/m3
same,mass density,"323.15 K, 10000 kPa",773 ± 0.3 kg/m3
same,mass density,"323.15 K, 15000 kPa",777.6 ± 0.3 kg/m3
same,mass density,"323.15 K, 20000 kPa",781.8 ± 0.4 kg/m3
same,mass density,"323.15 K, 25000 kPa",785.9 ± 0.4 kg/m3
same,mass density,"323.15 K, 30000 kPa",789.7 ± 0.5 kg/m3
same,mass density,"323.15 K, 35000 kPa",793.5 ± 0.5 kg/m3
same,mass density,"323.15 K, 40000 kPa",797.1 ± 0.6 kg/m3
same,mass density,"323.15 K, 45000 kPa",800.5 ± 0.6 kg/m3
same,mass density,"333.15 K, 100 kPa",754 ± 0.2 kg/m3
same,mass density,"333.15 K, 5000 kPa",759.3 ± 0.2 kg/m3
same,mass density,"333.15 K, 10000 kPa",764.3 ± 0.3 kg/m3
same,mass density,"333.15 K, 15000 kPa",769.1 ± 0.3 kg/m3
same,mass density,"333.15 K, 20000 kPa",773.6 ± 0.4 kg/m3
same,mass density,"333.15 K, 25000 kPa",777.8 ± 0.4 kg/m3
same,mass density,"333.15 K, 30000 kPa",781.9 ± 0.5 kg/m3
same,mass density,"333.15 K, 35000 kPa",785.8 ± 0.5 kg/m3
same,mass density,"333.15 K, 40000 kPa",789.5 ± 0.6 kg/m3
same,mass density,"333.15 K, 45000 kPa",793.1 ± 0.6 kg/m3
same,mass density,"343.15 K, 100 kPa",744.5 ± 0.2 kg/m3
same,mass density,"343.15 K, 5000 kPa",750.1 ± 0.2 kg/m3
same,mass density,"343.15 K, 10000 kPa",755.5 ± 0.3 kg/m3
same,mass density,"343.15 K, 15000 kPa",760.5 ± 0.3 kg/m3
same,mass density,"343.15 K, 20000 kPa",765.3 ± 0.4 kg/m3
same,mass density,"343.15 K, 25000 kPa",769.8 ± 0.5 kg/m3
same,mass density,"343.15 K, 30000 kPa",774 ± 0.5 kg/m3
same,mass density,"343.15 K, 35000 kPa",778.1 ± 0.5 kg/m3
same,mass density,"343.15 K, 40000 kPa",782 ± 0.6 kg/m3
same,mass density,"343.15 K, 45000 kPa",785.7 ± 0.6 kg/m3
same,mass density,"353.15 K, 5000 kPa",740.6 ± 0.2 kg/m3
same,mass density,"353.15 K, 10000 kPa",746.4 ± 0.3 kg/m3
same,mass density,"353.15 K, 15000 kPa",751.7 ± 0.4 kg/m3
same,mass density,"353.15 K, 20000 kPa",756.7 ± 0.4 kg/m3
same,mass density,"353.15 K, 25000 kPa",761.5 ± 0.5 kg/m3
same,mass density,"353.15 K, 30000 kPa",766 ± 0.5 kg/m3
same,mass density,"353.15 K, 35000 kPa",770.2 ± 0.6 kg/m3
same,mass density,"353.15 K, 40000 kPa",774.3 ± 0.6 kg/m3
same,mass density,"353.15 K, 45000 kPa",778.2 ± 0.7 kg/m3
CC1CCCCC1 [methylcyclohexane],mass density,"283.15 K, 100 kPa",777.6 ± 0.5 kg/m3
same,mass density,"283.15 K, 5000 kPa",781.4 ± 0.5 kg/m3
same,mass density,"283.15 K, 10000 kPa",785.2 ± 0.5 kg/m3
same,mass density,"283.15 K, 15000 kPa",788.7 ± 0.5 kg/m3
same,mass density,"283.15 K, 20000 kPa",792.1 ± 0.5 kg/m3
same,mass density,"283.15 K, 25000 kPa",795.3 ± 0.5 kg/m3
same,mass density,"283.15 K, 30000 kPa",798.5 ± 0.6 kg/m3
same,mass density,"283.15 K, 35000 kPa",801.5 ± 0.6 kg/m3
same,mass density,"283.15 K, 40000 kPa",804.4 ± 0.6 kg/m3
same,mass density,"283.15 K, 45000 kPa",807.3 ± 0.6 kg/m3
same,mass density,"293.15 K, 100 kPa",769 ± 0.5 kg/m3
same,mass density,"293.15 K, 5000 kPa",773 ± 0.5 kg/m3
same,mass density,"293.15 K, 10000 kPa",777 ± 0.5 kg/m3
same,mass density,"293.15 K, 15000 kPa",780.7 ± 0.5 kg/m3
same,mass density,"293.15 K, 20000 kPa",784.3 ± 0.5 kg/m3
same,mass density,"293.15 K, 25000 kPa",787.8 ± 0.5 kg/m3
same,mass density,"293.15 K, 30000 kPa",791.1 ± 0.6 kg/m3
same,mass density,"293.15 K, 35000 kPa",794.2 ± 0.6 kg/m3
same,mass density,"293.15 K, 40000 kPa",797.3 ± 0.6 kg/m3
same,mass density,"293.15 K, 45000 kPa",800.2 ± 0.6 kg/m3
same,mass density,"303.15 K, 100 kPa",760.4 ± 0.5 kg/m3
same,mass density,"303.15 K, 5000 kPa",764.7 ± 0.5 kg/m3
same,mass density,"303.15 K, 10000 kPa",768.9 ± 0.5 kg/m3
same,mass density,"303.15 K, 15000 kPa",772.8 ± 0.5 kg/m3
same,mass density,"303.15 K, 20000 kPa",776.6 ± 0.5 kg/m3
same,mass density,"303.15 K, 25000 kPa",780.2 ± 0.5 kg/m3
same,mass density,"303.15 K, 30000 kPa",783.7 ± 0.6 kg/m3
same,mass density,"303.15 K, 35000 kPa",787 ± 0.6 kg/m3
same,mass density,"303.15 K, 40000 kPa",790.2 ± 0.6 kg/m3
same,mass density,"303.15 K, 45000 kPa",793.3 ± 0.6 kg/m3
same,mass density,"313.15 K, 100 kPa",751.7 ± 0.4 kg/m3
same,mass density,"313.15 K, 5000 kPa",756.2 ± 0.5 kg/m3
same,mass density,"313.15 K, 10000 kPa",760.7 ± 0.5 kg/m3
same,mass density,"313.15 K, 15000 kPa",764.8 ± 0.5 kg/m3
same,mass density,"313.15 K, 20000 kPa",768.8 ± 0.5 kg/m3
same,mass density,"313.15 K, 25000 kPa",772.7 ± 0.5 kg/m3
same,mass density,"313.15 K, 30000 kPa",776.3 ± 0.6 kg/m3
same,mass density,"313.15 K, 35000 kPa",779.8 ± 0.6 kg/m3
same,mass density,"313.15 K, 40000 kPa",783.1 ± 0.6 kg/m3
same,mass density,"313.15 K, 45000 kPa",786.4 ± 0.6 kg/m3
same,mass density,"323.15 K, 100 kPa",742.9 ± 0.4 kg/m3
same,mass density,"323.15 K, 5000 kPa",747.7 ± 0.5 kg/m3
same,mass density,"323.15 K, 10000 kPa",752.5 ± 0.5 kg/m3
same,mass density,"323.15 K, 15000 kPa",756.9 ± 0.5 kg/m3
same,mass density,"323.15 K, 20000 kPa",761.1 ± 0.5 kg/m3
same,mass density,"323.15 K, 25000 kPa",765.1 ± 0.5 kg/m3
same,mass density,"323.15 K, 30000 kPa",769 ± 0.6 kg/m3
same,mass density,"323.15 K, 35000 kPa",772.6 ± 0.6 kg/m3
same,mass density,"323.15 K, 40000 kPa",776.1 ± 0.6 kg/m3
same,mass density,"323.15 K, 45000 kPa",779.5 ± 0.6 kg/m3
same,mass density,"333.15 K, 100 kPa",733.9 ± 0.4 kg/m3
same,mass density,"333.15 K, 5000 kPa",739 ± 0.5 kg/m3
same,mass density,"333.15 K, 10000 kPa",744.1 ± 0.5 kg/m3
same,mass density,"333.15 K, 15000 kPa",748.8 ± 0.5 kg/m3
same,mass density,"333.15 K, 20000 kPa",753.3 ± 0.5 kg/m3
same,mass density,"333.15 K, 25000 kPa",757.5 ± 0.5 kg/m3
same,mass density,"333.15 K, 30000 kPa",761.5 ± 0.6 kg/m3
same,mass density,"333.15 K, 35000 kPa",765.4 ± 0.6 kg/m3
same,mass density,"333.15 K, 40000 kPa",769 ± 0.6 kg/m3
same,mass density,"333.15 K, 45000 kPa",772.5 ± 0.7 kg/m3
same,mass density,"343.15 K, 100 kPa",724.8 ± 0.4 kg/m3
same,mass density,"343.15 K, 5000 kPa",730.4 ± 0.5 kg/m3
same,mass density,"343.15 K, 10000 kPa",735.8 ± 0.5 kg/m3
same,mass density,"343.15 K, 15000 kPa",740.8 ± 0.5 kg/m3
same,mass density,"343.15 K, 20000 kPa",745.6 ± 0.5 kg/m3
same,mass density,"343.15 K, 25000 kPa",750 ± 0.6 kg/m3
same,mass density,"343.15 K, 30000 kPa",754.2 ± 0.6 kg/m3
same,mass density,"343.15 K, 35000 kPa",758.2 ± 0.6 kg/m3
same,mass density,"343.15 K, 40000 kPa",762.1 ± 0.6 kg/m3
same,mass density,"343.15 K, 45000 kPa",765.7 ± 0.7 kg/m3
same,mass density,"353.15 K, 100 kPa",715.7 ± 0.4 kg/m3
same,mass density,"353.15 K, 5000 kPa",721.7 ± 0.5 kg/m3
same,mass density,"353.15 K, 10000 kPa",727.4 ± 0.5 kg/m3
same,mass density,"353.15 K, 15000 kPa",732.8 ± 0.5 kg/m3
same,mass density,"353.15 K, 20000 kPa",737.8 ± 0.5 kg/m3
same,mass density,"353.15 K, 25000 kPa",742.5 ± 0.6 kg/m3
same,mass density,"353.15 K, 30000 kPa",747 ± 0.6 kg/m3
same,mass density,"353.15 K, 35000 kPa",751.2 ± 0.6 kg/m3
same,mass density,"353.15 K, 40000 kPa",755.2 ± 0.6 kg/m3
same,mass density,"353.15 K, 45000 kPa",759 ± 0.7 kg/m3

# From the NIST ThermoML archive (doi:10.1016/j.jct.2005.03.016)
